Here are results for one compound from patent US20260265194A1, “COMPOUNDS FOR THE TREATMENT OF HIV” (THE TRUSTEES OF THE UNIVERSITY OF PENNSYLVANIA, priority 2022, published 2026).

In assay [1] the test system is HIV-1 AD8. Briefly: Single-round pseudovirus infection inhibition (luciferase), AD8 Env. The note with it: Cf2Th target cells expressing CD4 and CCR5. It counts as cell-based. The method, then:
(§1) Cell lines. 293T cells were grown in Dulbecco's modified Eagle's medium (DMEM) (Life Technologies, Wisent Inc.) supplemented with 10% fetal bovine serum (FBS) (Life Technologies, VWR) and 100 µg/ml of penicillin-streptomycin (Life Technologies, Wisent Inc.). Cf2Th cells stably expressing the human CD4 and CCR5 coreceptors for HIV-1 were grown in the same medium supplemented with 0.4 mg/ml of G418 and 0.2 mg/ml of hygromycin.
(§2) CD4-mimetic compound. The compounds of the disclosure (CD4mc) were dissolved in dimethyl sulfoxide (DMSO) at a stock concentration of 10 mM and diluted to the appropriate concentration for antiviral assays.
(§3) Production of recombinant pseudoviruses expressing luciferase. 293T cells were transfected with pSVIIIenv plasmids expressing Env from HIV-1 strain variants, the pCMVΔP1Δenv HIV-1 Gag-Pol packaging construct and the firefly luciferase-expressing HIV-1 vector at a 1:1:3 μg DNA ratio using effectene transfection reagent (Qiagen). […]
(§4) Virus infectivity and inhibition. […] Forty-eight h later, the target cells were lysed and the luciferase activity was measured.
(§5) For inhibition assays, the compounds to be tested were incubated at various concentrations with recombinant pseudoviruses for 1 h at 37° C. […] Forty-eight hours later, the target cells were lysed and the luciferase activity was measured. […]

Assay [2] concerns HIV-1 JR-FL. Briefly: Single-round pseudovirus infection inhibition (luciferase), JR-FL Env. The settings on record: Cf2Th target cells expressing CD4 and CCR5. It counts as cell-based. The method, then: as §1, §2, §3, §4, §5
Assay [3] deals with BG505, cladeA HIV-1. The assay can be described thus: Single-round pseudovirus infection inhibition (luciferase), BG505 Env. The note with it: Cf2Th target cells expressing CD4 and CCR5. It counts as cell-based. The method, then:
as §1, §2, §3, §4, §5

In assay [4] the test system is mutant HIV-1AD8 batches 130_3 and 130_C. The assay can be described thus: Entry inhibition of CD4mc resistant AD8 variants. It counts as cell-based. The settings on record: up to 300 μM. The protocol:
CD4mc resistant variants of Clade B virus AD8 were also selected by incubating infected host cells with increasing concentrations of BNM-III-170. […] These resistant strains of AD8 were sequenced to find specific mutations in the gp120 monomer that conferred the greatest resistance to BNM-III-170. Of these mutations examined, E64G, S375N, and I424T conferred the greatest resistance to treatment with compounds of the disclosure.
Each of the mutations individually were able to increase resistance to BNM-III-170, but were most resistant when combined as in HIV-1AD8 isolates 130_3 and 130_C. […] This was true with the individual mutations discussed above, as well as the original resistant mutants 130_3 and 130_C.

The subject of assay [5] is Env on JR-FL infected primary T-cells. Briefly: HIV+ plasma binding (Ab recognition of Env on infected cells). Format: cell-based, HIV-1. The source says:
(§6) The ability of the compounds of the disclosure to enhance Ab recognition of Env on the surface of infected cells and mediate ADCC was examined. Via HIV+ plasma binding, it was observed that CJF-III-192 was able to enhance Ab recognition to a greater degree than BNM-III-170 (7-fold vs 2-fold enhancement vs DMSO) for JR-FL infected primary T-cells. Additionally, when comparing the % ADCC activity of these two compounds, it was observed that CJF-III-192 could achieve up to 8% killing of HIVJR-FL-infected cells, while BNM-III-170 could only attain levels up to 5%. This effect on ADCC activity was more pronounced with HIVCH58TF-infected cells; 18% killing for CJF-III-192 vs. 8% killing with […].

The test system of assay [6] is HIVJR-FL-infected cells. Briefly: ADCC killing of HIVJR-FL-infected cells. Format: cell-based, HIV-1.
Excerpt: as §6

The subject of assay [7] is HIVCH58TF-infected cells. Briefly: ADCC killing of HIVCH58TF-infected cells. It counts as cell-based, HIV-1.
Excerpt: as §6

In general, IC50 refers to the concentration needed to halve the response being measured. The low end stands for higher potency, the high end for lower potency. Take `CNCc1ccc2c(c1)C[C@H](CN=C(N)N)[C@H]2NC(=O)C(=O)Nc1ccc(Cl)c(F)c1.O=C(O)C(F)(F)F.O=C(O)C(F)(F)F` [BNM-III-170]: the 50% inhibitory concentration (IC50) in assay [1] is 1.7 µM; in assay [2], 12.2 µM; in assay [3], above 300 µM. Also, the “entry inhibition of resistant mutants” value in assay [4] was “completely resistant”. The “enhancement of Ab recognition vs DMSO” value in assay [5] was determined as 2 fold. Besides, the “% ADCC activity (killing)” value is “up to 5%” in assay [6] and 8% in assay [7].
